What was measured:
Axl [1] = molecular target: T1, Axl (Homo sapiens, UniProt P30530); assay: HTRF KinEASE-TK biochemical potency, AXL; design: purchased Invitrogen; conditions: 5 nM AXL, 700 μM ATP
T1 sequence (P30530 26-894): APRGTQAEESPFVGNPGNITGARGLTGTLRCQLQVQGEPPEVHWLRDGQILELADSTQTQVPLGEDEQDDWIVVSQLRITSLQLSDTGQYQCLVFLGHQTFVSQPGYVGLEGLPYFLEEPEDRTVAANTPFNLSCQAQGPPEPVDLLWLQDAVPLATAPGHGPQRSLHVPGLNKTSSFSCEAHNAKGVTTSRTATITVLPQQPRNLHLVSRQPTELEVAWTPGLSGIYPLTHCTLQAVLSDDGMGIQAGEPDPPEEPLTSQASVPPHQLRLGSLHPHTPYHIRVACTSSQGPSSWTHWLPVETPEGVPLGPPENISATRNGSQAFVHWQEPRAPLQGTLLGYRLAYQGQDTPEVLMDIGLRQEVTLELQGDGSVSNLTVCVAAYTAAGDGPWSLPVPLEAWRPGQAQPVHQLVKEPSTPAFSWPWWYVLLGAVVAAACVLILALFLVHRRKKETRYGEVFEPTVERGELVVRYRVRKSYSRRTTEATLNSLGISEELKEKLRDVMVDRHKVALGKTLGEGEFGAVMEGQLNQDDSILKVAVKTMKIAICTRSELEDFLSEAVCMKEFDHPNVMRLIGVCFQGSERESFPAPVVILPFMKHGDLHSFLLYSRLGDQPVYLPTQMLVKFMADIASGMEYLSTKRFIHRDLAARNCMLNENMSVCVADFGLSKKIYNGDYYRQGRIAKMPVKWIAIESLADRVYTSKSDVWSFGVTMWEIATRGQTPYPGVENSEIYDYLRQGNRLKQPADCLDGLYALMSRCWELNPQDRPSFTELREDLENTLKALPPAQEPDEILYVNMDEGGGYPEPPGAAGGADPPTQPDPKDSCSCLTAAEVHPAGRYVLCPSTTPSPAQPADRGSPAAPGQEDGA
Method: (§1) Purified recombinant human AXL, TYRO3 and MER proteins were purchased from Invitrogen™. 10 nM AXL, 2 nM TYRO3 or MER were incubated with varying concentrations of compounds in 50 mM HEPES, pH 7.4, 10 mM MgCl2, 0.01% BSA, 1 mM DTT and 2% DMSO in a total volume of 20 μl in a 384-well microplate (Corning™ #3640) at RT for 1 h. The AXL, TYRO3 and MER enzymatic reaction was initiated by transferring 10 μl of enzyme and compound mixture into 10 μl of 1.6 μM TK Substrate-biotin (HTRF® KinEASE-TK kit, Cisbio) and 1400 μM ATP pre-incubated in 50 mM HEPES, pH 7.4, 10 mM MgCl2, 0.01% BSA, 1 mM DTT in a 384-well microplate (Corning™ #3640) at RT, giving the final reaction conditions: 5 nM AXL, 1 nM TYRO3 or MER, 800 nM TK Substrate-biotin and 700 μM ATP in 50 mM HEPES, pH 7.4, 10 mM MgCl2, 0.01% BSA, 1 mM DTT and 1% DMSO with varying concentrations of compounds. Following 2 h incubation at RT, the AXL, TYRO3 and MER enzymatic reaction was stopped by transfer of 10 μl of reaction into 10 μl of detection mix (400 nM Streptavidin-XL665, 200-fold dilution TK Antibody-Cryptate and detection buffer, HTRF® KinEASE-TK kit, Cisbio) in a white 384-well microplate (Perkin Elmer, OptiPlate 384). After 1 h incubation at RT, the plate was put into a plate reader (Evision) to read at 665/620 nm (acceptor/donor) for HTRF. The value of the DMSO blank (MIN inhibition=100% activity) was used as a negative control. The positive control was established by adding 5 μl of enzyme and DMSO mixture into 10 μl of detection mix followed by addition of 5 μl of TK Substrate-biotin and ATP mixture (MAX inhibition=0% activity). To calculate the percent activity, Equation 1 was used. Ratio665/620 is the value at a given compound concentration: […]

Axl [2] = molecular target: T1, Axl; assay: Axl NanoBRET intracellular kinase assay (Cell Binding); design: host or cells: HEK-293; conditions: HEK-293 cells transfected with Axl-NanoLuc fusion vector; displacement of K-5 NanoBRET tracer
Method: Axl NanoBRET™ intracellular kinase assay (Promega, N2540) was performed according to manufacturer's recommendation. In brief, HEK-293 cells are transiently transfected with Axl-NanoLuc fusion vector (Promega, NV1071), utilizing Fugene HD transfection reagent (Promega, E2311) a day before experiment following manufacturer's recommendation.
The day of the assay, the cells were collected and resuspended in Opti-MEM media (ThermoFisher, 31985070) at 2e5 cells/mL concentration. Testing compounds were serial diluted and dispensed into a white 384 well polystyrene plate at 200 nL in 100% DMSO. 40 μL of resuspended cells is then added per well for a final condition of 8K cells/well with 0.5% DMSO. After one-hour compound pre-incubation at 37° C. and 5% CO2, cells were further incubated with 0.35 μM K-5 NanoBRET tracer for two-hours at 37° C. and 5% CO2. […] of 3× substrate plus Inhibitor solution was prepared according to kits manual and added to the cells followed by a 30 second pulse centrifugation spin. The plate was then immediately read utilizing an Envision (Perkin Elmer) plate reader. The BRET signal is measured by taking the ratio of the emissions reading at 610 nm and 450 nm. Compound binding is based on the decrease BRET signal caused by the displacement of the K-5 tracer. […] IC50 value of compounds was determined by 4-parameter non-linear regression fitting of percent activity in GraphPad Prism software.

recombinant human TYRO3 = molecular target: T2, recombinant human TYRO3 (Homo sapiens, UniProt Q06418); assay: HTRF KinEASE-TK biochemical potency, TYRO3; conditions: 1 nM TYRO3, 700 μM ATP
T2 construct: purchased Invitrogen
T2 sequence (Q06418 41-890): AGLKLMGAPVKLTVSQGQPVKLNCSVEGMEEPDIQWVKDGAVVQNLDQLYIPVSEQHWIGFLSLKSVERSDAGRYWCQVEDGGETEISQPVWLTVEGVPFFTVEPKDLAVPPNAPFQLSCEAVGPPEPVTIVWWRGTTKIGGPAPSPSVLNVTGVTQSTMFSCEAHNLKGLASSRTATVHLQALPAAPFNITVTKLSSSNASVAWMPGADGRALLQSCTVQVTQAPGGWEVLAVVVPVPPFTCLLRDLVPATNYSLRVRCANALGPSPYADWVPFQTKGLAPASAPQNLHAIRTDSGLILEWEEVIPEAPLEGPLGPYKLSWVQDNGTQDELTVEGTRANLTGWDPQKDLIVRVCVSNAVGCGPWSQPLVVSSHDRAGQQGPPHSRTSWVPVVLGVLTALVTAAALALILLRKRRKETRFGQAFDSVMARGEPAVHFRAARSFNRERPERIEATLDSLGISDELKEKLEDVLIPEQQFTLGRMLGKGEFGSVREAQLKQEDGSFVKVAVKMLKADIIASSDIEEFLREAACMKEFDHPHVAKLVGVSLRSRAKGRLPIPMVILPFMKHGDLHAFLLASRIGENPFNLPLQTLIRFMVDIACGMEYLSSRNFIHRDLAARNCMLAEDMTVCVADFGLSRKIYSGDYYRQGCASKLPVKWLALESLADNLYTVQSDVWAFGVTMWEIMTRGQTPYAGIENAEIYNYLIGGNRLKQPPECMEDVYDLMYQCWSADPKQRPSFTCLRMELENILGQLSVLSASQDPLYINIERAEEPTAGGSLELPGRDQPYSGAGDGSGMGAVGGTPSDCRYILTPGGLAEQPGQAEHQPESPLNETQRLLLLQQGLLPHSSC
Method: as §1

## FC1(F)Oc2ccc(-c3n[nH]c4ncc(-c5ccc6c(c5)CCN(C5CCCC5)CC6)cc34)cc2O1 [Example 14, 3-Cyclopentyl-7-(3-(2,2-difluorobenzo[d][1,3]dioxol-5-yl)-1H-pyrazolo[3,4-b]pyridin-5-yl)-2,3,4,5-tetrahydro-1H-benzo[d]azepine]
Axl [1]
  IC50: > 1000 nM
Axl [2]
  IC50: > 1000 nM

## O=C1NCCOc2cc(-c3n[nH]c4ncc(-c5cc(Cl)c6c(c5)CCN(C5CCCC5)C6)cc34)ccc21 [Example 8, 8-[5-(8-Chloro-2-cyclopentyl-1,2,3,4-tetrahydroisoquinolin-6-yl)-1H-pyrazolo[3,4-b]pyridin-3-yl]-2,3,4,5-tetrahydro-1,4-benzoxazepin-5-one]
Axl [1]
  IC50: 100 to 1000 nM
Axl [2]
  IC50: > 1000 nM

## CS(=O)(=O)N1CCc2ccc(-c3cnc4[nH]nc(-c5ccc6c(c5)OCCNC6=O)c4c3)cc2CC1 [Example 18, 8-[5-(3-Methanesulfonyl-2,3,4,5-tetrahydro-1H-3-benzazepin-7-yl)-1H-pyrazolo[3,4-b]pyridin-3-yl]-2,3,4,5-tetrahydro-1,4-benzoxazepin-5-one]
Recombinant human TYRO3
  IC50: < 100 nM
Axl [1]
  IC50: < 100 nM
Axl [2]
  IC50: > 1000 nM

From patent US20240226115A1, “AXL INHIBITOR COMPOUNDS” (ARCUS BIOSCIENCES, INC., priority 2021, published 2024)
